Reference: patent US4283398A, “Cephalosporins” (Mitsui Toatsu Chemicals, Inc., priority 1978, dated 1981)
Like-named read-outs stand apart in the source and are kept apart here.

Legend:
Experiment in all cases: minimum growth inhibitory concentration (MIC) method
Type in all cases: cell-based
Escherichia coli (K-12) = details: E. coli K-12, HIA medium, 37° C., 18 hours, sodium salts
Procedure: (§1) The antibacterial activities of the cephalosporins of this invention were measured using the sodium salts of the compounds obtained in Synthesis Examples 1 and 2. The procedure and the results are shown in Referential Example 1.
(§2) Carbenicillin sodium salt (CB-PC) and cephazoline sodium salt (CEZ) were used as controls.
(§3) The antibacterial activities of the test compounds against various Gram-positive and Gram-negative bacteria were determined in a customary manner by the minimum growth inhibitory concentration method (MIC method).
(§4) A commercially available heart infusion agar medium (to be abbreviated HIA medium) was used as an assay medium, and a commercially available trypto-soy bouillon medium (to be abbreviated TSB) was used as a medium for the growth of test bacterial strains.
(§5) The test compound was diluted with the melted HIA medium to 100 μg/ml as a maximum concentration, and then serially diluted double. The dilutions were poured into sterilized Petri dishes respectively and allowed to cool and solidify to prepare plates containing the test compound.
(§6) The test bacterial strain was cultivated at 37° C. for 18 to 24 hours in the TSB medium. The culture broth was diluted to 50 to 500 times with a freshly prepared TSB culture medium, and one platinum loopful of the dilution was inoculated in each of the plates containing the test compound. The plate was incubated at 37° C. for 18 hours, and the state of growth of the strain on the plate was observed, and the minimum growth inhibitory concentration (MIC) of the test compound was determined.

[1] = tested on: Enterobacter aerogenes (IFO 3320); details: Klebsiella aerogenes, read-out: Minimum growth inhibitory concentration
Procedure: as §1, §2, §3, §4, §5, §6

Proteus rettgeri (T-2) = details: Providencia rettgeri, HIA medium, 37° C., 18 hours, sodium salts
Procedure: as §1, §2, §3, §4, §5, §6

[2] = tested on: Staphylococcus aureus (FDA 209P); details: FDA209P, read-out: Minimum growth inhibitory concentration
Procedure: as §1, §2, §3, §4, §5, §6

[3] = tested on: Staphylococcus aureus (Y-8); details: S. aureus Y-8, HIA medium, 37° C., 18 hours, sodium salts
Procedure: as §1, §2, §3, §4, §5, §6

[4] = tested on: Pseudomonas aeruginosa (395); details: P. aeruginosa 395, HIA medium, 37° C., 18 hours, sodium salts
Procedure: as §1, §2, §3, §4, §5, §6

[5] = tested on: Pseudomonas Maltophilia (F-6257); details: Stenotrophomonas maltophilia, HIA medium, 37° C., 18 hours, sodium salts
Procedure: as §1, §2, §3, §4, §5, §6

[6] = tested on: Pseudomonas aeruginosa (F1629); details: P. aeruginosa F1629, HIA medium, 37° C., 18 hours, sodium salts
Procedure: as §1, §2, §3, §4, §5, §6

[7] = tested on: Klebsiella pneumoniae (B-172); details: K. pneumoniae B-172, HIA medium, 37° C., 18 hours, sodium salts
Procedure: as §1, §2, §3, §4, §5, §6

[8] = tested on: Pseudomonas aeruginosa (S-1); details: P. aeruginosa S-1, HIA medium, 37° C., 18 hours, sodium salts
Procedure: as §1, §2, §3, §4, §5, §6

[9] = tested on: Serratia marcescens (S-33); details: HIA medium, 37° C., 18 hours, sodium salts
Procedure: as §1, §2, §3, §4, §5, §6

[10] = tested on: Salmonella enteritidis (KB-21); details: Salmonella enterica, read-out: Minimum growth inhibitory concentration
Procedure: as §1, §2, §3, §4, §5, §6

[11] = tested on: Pseudomonas aeruginosa (IFO-3901); details: IFO3901, P. aeruginosa IFO-3901, HIA medium, 37° C., 18 hours, sodium salts
Procedure: as §1, §2, §3, §4, §5, §6

[12] = tested on: Klebsiella pneumoniae (Horino); details: K. pneumoniae Horino, HIA medium, 37° C., 18 hours, sodium salts
Procedure: as §1, §2, §3, §4, §5, §6

Escherichia coli (NIHJ) = details: E. coli NIHJ, HIA medium, 37° C., 18 hours, sodium salts
Procedure: as §1, §2, §3, §4, §5, §6

Proteus vulgaris (OX-19) = details: read-out: Minimum growth inhibitory concentration
Procedure: as §1, §2, §3, §4, §5, §6

[13] = tested on: Escherichia coli (14H114); details: E. coli 14H114, HIA medium, 37° C., 18 hours, sodium salts
Procedure: as §1, §2, §3, §4, §5, §6

[14] = tested on: Pseudomonas aeruginosa (ATCC 10145); details: ATCC10145, P. aeruginosa ATCC 10145, HIA medium, 37° C., 18 hours, sodium salts
Procedure: as §1, §2, §3, §4, §5, §6

[15] = tested on: Bacillus cereus (IAM 1792); details: IAM1792, HIA medium, 37° C., 18 hours, sodium salts
Procedure: as §1, §2, §3, §4, §5, §6

[16] = tested on: Enterobacter cloacae (D-49); details: HIA medium, 37° C., 18 hours, sodium salts
Procedure: as §1, §2, §3, §4, §5, §6

[17] = tested on: Pseudomonas aeruginosa (718); details: P. aeruginosa 718, HIA medium, 37° C., 18 hours, sodium salts
Procedure: as §1, §2, §3, §4, §5, §6

Proteus morganii (C-39) = details: Morganella morganii, HIA medium, 37° C., 18 hours, sodium salts
Procedure: as §1, §2, §3, §4, §5, §6

[18] = tested on: Citrobacter freundii (F-34); details: HIA medium, 37° C., 18 hours, sodium salts
Procedure: as §1, §2, §3, §4, §5, §6

[19] = tested on: Klebsiella pneumoniae (ATCC 10031); details: read-out: Minimum growth inhibitory concentration
Procedure: as §1, §2, §3, §4, §5, §6

[20] = tested on: Streptococcus faecalis (Hoshi); details: Enterococcus faecalis, HIA medium, 37° C., 18 hours, sodium salts
Procedure: as §1, §2, §3, §4, §5, §6

Shigella flexneri (K-A) = details: HIA medium, 37° C., 18 hours, sodium salts
Procedure: as §1, §2, §3, §4, §5, §6

[21] = tested on: Pseudomonas aeruginosa (NCTC 7244); details: NCTC7244, P. aeruginosa NCTC 7244, HIA medium, 37° C., 18 hours, sodium salts
Procedure: as §1, §2, §3, §4, §5, §6

[22] = IFO3320, Enterobacter aerogenes IFO 3320, HIA medium, 37° C., 18 hours, sodium salts
[23] = S. aureus FDA 209P, HIA medium, 37° C., 18 hours, sodium salts
[24] = Salmonella enteritidis KB-21, HIA medium, 37° C., 18 hours, sodium salts
[25] = Proteus vulgaris OX-19, HIA medium, 37° C., 18 hours, sodium salts
[26] = ATCC10031, K. pneumoniae ATCC 10031, HIA medium, 37° C., 18 hours, sodium salts

SMILES	MIC (Escherichia coli (K-12))	MIC (Proteus rettgeri (T-2))	MIC [3]	MIC [4]	MIC [5]	MIC [6]	MIC [7]	MIC [8]	MIC [9]	MIC [11]	MIC [12]	MIC (Escherichia coli (NIHJ))	MIC [13]	MIC [14]	MIC [15]	MIC [16]	MIC [17]	MIC (Proteus morganii (C-39))	MIC [18]	MIC [20]	other results
Cc1nnc(SCC2=C(C(=O)O)N3C(=O)[C@@H](NC(=O)Cn4cnnn4)[C@H]3SC2)s1 [CEZ, sodium 7-[1-(1H)-tetrazoylacetamido]-3-[2-(5-methyl-1,3,4-thiadiazoyl)-thiomethyl]-Δ^3, cephem-4-carboxylate, reference compound]	3.13 µg/mL	12.5 µg/mL	0.78 µg/mL	> 100 µg/mL	> 100 µg/mL	> 100 µg/mL	3.13 µg/mL	> 100 µg/mL	> 100 µg/mL	> 100 µg/mL	3.13 µg/mL	3.13 µg/mL	6.25 µg/mL	> 100 µg/mL	100 µg/mL	> 100 µg/mL	> 100 µg/mL	> 100 µg/mL	50 µg/mL	25 µg/mL	MIC [1, 22]: 3.13 µg/mL; MIC [2, 23]: 0.2 µg/mL; MIC ([10]; ENTERITIDIS, 18 h): 1.56 µg/mL; MIC (Proteus vulgaris (OX-19); Proteus vulgaris, 18 h): 1.56 µg/mL; MIC ([19]; ATCC10031, 18 h): 1.56 µg/mL; MIC (Shigella flexneri (K-A)): 1.56 µg/mL; MIC [21]: > 100 µg/mL
Cn1nnnc1SCC1=C(C(=O)O)N2C(=O)C(NC(=O)[C@H](NC(=O)c3cnc4c(c3O)C(=O)CCC4)c3ccc(O)cc3)C2SC1 (single isomer, unassigned) [Synthesis Example 2, 7-[D-(-)-α-(4-hydroxy-5-oxo-5,6,7,8-tetrahydroquinoline-3-carboxamide)-α-(4-hydroxyphenyl)acetamido]-3-[[(1-methyl-1H-tetrazol-5-yl)thio]methyl]-Δ^3-cephem-4-carboxylic acid]	0.39 µg/mL	1.56 µg/mL	3.13 µg/mL	1.56 µg/mL	6.25 µg/mL	3.13 µg/mL	0.78 µg/mL	1.56 µg/mL	3.13 µg/mL	12.5 µg/mL	0.78 µg/mL	0.78 µg/mL	6.25 µg/mL	12.5 µg/mL	12.5 µg/mL	3.13 µg/mL	12.5 µg/mL	3.13 µg/mL	0.39 µg/mL	25 µg/mL	MIC [1, 22]: 0.2 µg/mL; MIC [2, 23]: 1.56 µg/mL; MIC [10, 24]: 0.39 µg/mL; MIC (Proteus vulgaris (OX-19); [25]): 0.78 µg/mL; MIC [19, 26]: 0.39 µg/mL; MIC (Shigella flexneri (K-A)): 0.1 µg/mL; MIC [21]: 6.25 µg/mL
CC1(C)S[C@@H]2[C@H](NC(=O)C(C(=O)O)c3ccccc3)C(=O)N2[C@H]1C(=O)O (stereo partly drawn) [CB-PC, disodium-α-carboxybenzyl penicillin, reference compound]	6.25 µg/mL	3.13 µg/mL	12.5 µg/mL	25 µg/mL	25 µg/mL	> 100 µg/mL	25 µg/mL	25 µg/mL	6.25 µg/mL	100 µg/mL	100 µg/mL	6.25 µg/mL	> 100 µg/mL	> 100 µg/mL	100 µg/mL	> 100 µg/mL	> 100 µg/mL	6.25 µg/mL	3.13 µg/mL	50 µg/mL	MIC ([1]; IFO3320, 18 h): 1.56 µg/mL; MIC ([2]; 18 h): 1.56 µg/mL; MIC ([10]; ENTERITIDIS, 18 h): 1.56 µg/mL; MIC (Proteus vulgaris (OX-19); [25]): 6.25 µg/mL; MIC [19, 26]: > 100 µg/mL; MIC (Shigella flexneri (K-A)): 1.56 µg/mL; MIC [21]: 100 µg/mL
Cn1nnnc1SCC1=C(C(=O)O)N2C(=O)C(NC(=O)[C@H](NC(=O)c3cnc4c(c3O)C(=O)CCC4)c3ccccc3)C2SC1 (single isomer, unassigned) [Synthesis Example 1, 7-[D-(-)-α-(4-hydroxy-5-oxo-5,6,7,8-tetrahydroquinoline-3-carboxamide)phenylacetamido)-3-[[(1-methyl-1H-tetrazol-5-yl)thio]methyl]-Δ^3-cephem-4-carboxylic acid]	0.78 µg/mL	1.56 µg/mL	3.13 µg/mL	3.13 µg/mL	3.13 µg/mL	6.25 µg/mL	0.78 µg/mL	1.56 µg/mL	3.13 µg/mL	12.5 µg/mL	1.56 µg/mL	0.78 µg/mL	6.25 µg/mL	12.5 µg/mL	25 µg/mL	6.25 µg/mL	12.5 µg/mL	3.13 µg/mL	0.78 µg/mL	25 µg/mL	MIC [1, 22]: 0.2 µg/mL; MIC [2, 23]: 1.56 µg/mL; MIC [10, 24]: 0.78 µg/mL; MIC (Proteus vulgaris (OX-19); [25]): 1.56 µg/mL; MIC [19, 26]: 0.2 µg/mL; MIC (Shigella flexneri (K-A)): 0.2 µg/mL; MIC [21]: 12.5 µg/mL
